Like-named read-outs stand apart in the source and are kept apart here.
How the values were obtained:
HSP90α protein = target: T1, HSP90α protein (Homo sapiens, UniProt P07900); assay: HSP90α-binding FP (BODIPY) assay; conditions: FP competition with BODIPY-labeled RNK04010
T1 construct: purchased BPS Bioscience #50298
Summary of the method: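 Fluorescence polarization measured competition with N-terminal human HSP90α, using either FITC-geldanamycin or BODIPY-labelled triazolone RNK04010 as tracer (5 nM final each). Compounds were tested in 2.5-fold dilutions from 20 μM to 5.2 nM, with incubation at 25 °C for 120 min (FITC) or 300 min (BODIPY).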

[1] = test system: MV-4-11 human acute myeloid leukemia; assay: MV-4-11 CCK-8 proliferation assay; assay type: cell-based; conditions: MV-4-11 cells, 72 hr
Summary of the method: (§1)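 3-fold dilution series, 20 μM–1.02 nM; ATCC culture conditions; CCK-8 absorbance read-out; % inhibition = 100 − (D−B)/(S−B)×100, S = DMSO cells, B = medium + DMSO, no cells.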

[2] = test system: U-87 MG human glioblastoma; assay: U87 MG CCK-8 proliferation assay; assay type: cell-based; conditions: U-87 MG cells, read-out: U87MG CCK-8
Summary of the method: as §1

Row | IC50 (HSP90α protein) [nM] | EC50 ([1]; Homo sapiens, MV4-11) [nM] | EC50 ([2]; Homo sapiens, U-87 MG, 72 h) [nM] | Molecule | EC50 [1] [nM] | EC50 ([2]; 72 hr) [nM]
1 | > 1000 | 100 to 1000 | > 1000 | CCOc1cc(N2CCC(C(=O)NCCOCCOCCNC(=O)O[C@H]3CC[C@H](Nc4cc(-n5nc(C(F)(F)F)c6c5CC(C)(C)CC6=O)ccc4C(N)=O)CC3)CC2)ccc1Nc1ncc2c(n1)N(C)c1ccccc1C(=O)N2C [Compound 120, (1R,4R)-4-((2-carbamoyl-5-(6,6-dimethyl-4-oxo-3-(trifluoromethyl)-4,5,6,7-tetrahydro-1H-indazol-1-yl)phenyl)amino)cyclohexyl (2-(2-(2-(1-(4-((5,11-dimethyl-6-oxo-6,11-dihydro-5H-benzo[e]pyrimido[5,4-b][1,4]diazepin-2-yl)amino)-3-ethoxyphenyl)piperidine-4-carboxamido)ethoxy)ethoxy)ethyl)carbamate] | – | –
2 | > 1000 | > 1000 | > 1000 | CCOc1cc(N2CCC(C(=O)N3CCC(CN4CCN(C(=O)O[C@H]5CC[C@H](Nc6cc(-n7nc(C(F)(F)F)c8c7CC(C)(C)CC8=O)ccc6C(N)=O)CC5)CC4)CC3)CC2)ccc1Nc1ncc2c(n1)N(C)c1ccccc1C(=O)N2C [Compound 121, (1R,4R)-4-((2-carbamoyl-5-(6,6-dimethyl-4-oxo-3-(trifluoromethyl)-4,5,6,7-tetrahydro-1H-indazol-1-yl)phenyl)amino)cyclohexyl 4-((1-(1-(4-((5,11-dimethyl-6-oxo-6,11-dihydro-5H-benzo[e]pyrimido[5,4-b][1,4]diazepin-2-yl)amino)-3-ethoxyphenyl)piperidine-4-carbonyl)piperidin-4-yl)methyl)piperazine-1-carboxylate] | – | –
3 | > 1000 | 100 to 1000 | > 1000 | CCOc1cc(N2CCC(C(=O)N3CCC(CN4CCN(C(=O)CNC(=O)O[C@H]5CC[C@H](Nc6cc(-n7nc(C(F)(F)F)c8c7CC(C)(C)CC8=O)ccc6C(N)=O)CC5)CC4)CC3)CC2)ccc1Nc1ncc2c(n1)N(C)c1ccccc1C(=O)N2C [Compound 122, (1R,4R)-4-((2-carbamoyl-5-(6,6-dimethyl-4-oxo-3-(trifluoromethyl)-4,5,6,7-tetrahydro-1H-indazol-1-yl)phenyl)amino)cyclohexyl (2-(4-((1-(1-(4-((5,11-dimethyl-6-oxo-6,11-dihydro-5H-benzo[e]pyrimido[5,4-b][1,4]diazepin-2-yl)amino)-3-ethoxyphenyl)piperidine-4-carbonyl)piperidin-4-yl)methyl)piperazin-1-yl)-2-oxoethyl)carbamate] | – | –
4 | < 100 | < 100 | < 100 | CCNC(=O)c1nnc(-c2cc(CC)c(O)cc2O)n1-c1ccc(CN2CCN(CC3CCN(C(=O)C4CCN(c5ccc(Nc6ncc7c(n6)N(C)c6ccccc6C(=O)N7C)c(OCC)c5)CC4)CC3)CC2)cc1 [Compound 134, 4-(4-((4-((1-(1-(4-((5,11-dimethyl-6-oxo-6,11-dihydro-5H-benzo[e]pyrimido[5,4-b][1,4]diazepin-2-yl)amino)-3-ethoxyphenyl)piperidine-4-carbonyl)piperidin-4-yl)methyl)piperazin-1-yl)methyl)phenyl)-N-ethyl-5-(5-ethyl-2,4-dihydroxyphenyl)-4H-1,2,4-triazole-3-carboxamide] | – | –

More lines, now with the values behind:

Row | Molecule | IC50 (HSP90α protein) [nM] | EC50 ([1]; Homo sapiens, MV4-11) [nM] | EC50 ([2]; Homo sapiens, U-87 MG, 72 h) [nM] | EC50 [1] [nM] | EC50 ([2]; 72 hr) [nM]
5 | CCOc1cc(N2CCC(C(=O)N3CCC(Cc4ccc(CN(C)Cc5ccc(-n6c(C(=O)NCC(F)(F)F)nnc6-c6cc(CC)c(O)cc6O)cc5)cc4)CC3)CC2)ccc1Nc1ncc2c(n1)N(S(C)(=O)=O)c1ccccc1C(=O)N2C [Compound 097, 4-(4-(((4-((1-(1-(3-ethoxy-4-((5-methyl-11-(methylsulfonyl)-6-oxo-6,11-dihydro-5H-benzo[e]pyrimido[5,4-b][1,4]diazepin-2-yl)amino)phenyl)piperidine-4-carbonyl)piperidin-4-yl)methyl)benzyl)(methyl)amino)methyl)phenyl)-5-(5-ethyl-2,4-dihydroxyphenyl)-N-(2,2,2-trifluoroethyl)-4H-1,2,4-triazole-3-carboxamide] | 100 to 1000 | < 100 | > 1000 | – | –
6 | CCOc1cc(N2CCC(C(=O)N3CCC(Cc4ccc(CN(C)Cc5ccc(-n6c(C(=O)NCC(F)(F)F)nnc6-c6cc(C)c(O)cc6O)cc5)cc4)CC3)CC2)ccc1Nc1ncc2c(n1)N(S(C)(=O)=O)c1ccccc1C(=O)N2C [Compound 100, 5-(2,4-dihydroxy-5-methylphenyl)-4-(4-(((4-((1-(1-(3-ethoxy-4-((5-methyl-11-(methylsulfonyl)-6-oxo-6,11-dihydro-5H-benzo[e]pyrimido[5,4-b][1,4]diazepin-2-yl)amino)phenyl)piperidine-4-carbonyl)piperidin-4-yl)methyl)benzyl)(methyl)amino)methyl)phenyl)-N-(2,2,2-trifluoroethyl)-4H-1,2,4-triazole-3-carboxamide] | > 1000 | 100 to 1000 | > 1000 | – | –
7 | CCOc1cc(N2CCC(C(=O)N3CCN(C(=O)O[C@H]4CC[C@H](Nc5cc(-n6nc(C(F)(F)F)c7c6CC(C)(C)CC7=O)ccc5C(N)=O)CC4)CC3)CC2)ccc1Nc1ncc2c(n1)N(S(C)(=O)=O)c1ccccc1C(=O)N2C [Compound 106, (1R,4R)-4-((2-carbamoyl-5-(6,6-dimethyl-4-oxo-3-(trifluoromethyl)-4,5,6,7-tetrahydro-1H-indazol-1-yl)phenyl)amino)cyclohexyl 4-(1-(3-ethoxy-4-((5-methyl-11-(methylsulfonyl)-6-oxo-6,11-dihydro-5H-benzo[e]pyrimido[5,4-b][1,4]diazepin-2-yl)amino)phenyl)piperidine-4-carbonyl)piperazine-1-carboxylate] | > 1000 | 100 to 1000 | > 1000 | – | –
8 | CCOc1cc(N2CCC(C(=O)N3CCC(CN4CCN(Cc5ccc(-n6c(C(=O)NC(C)C(F)(F)F)nnc6-c6cc(CC)c(O)cc6O)cc5)CC4)CC3)CC2)ccc1Nc1ncc2c(n1)N(C)c1ccccc1C(=O)N2C (stereo not drawn) [Compound 114, 4-(4-((4-((1-(1-(4-((5,11-dimethyl-6-oxo-6,11-dihydro-5H-benzo[e]pyrimido[5,4-b][1,4]diazepin-2-yl)amino)-3-ethoxyphenyl)piperidine-4-carbonyl)piperidin-4-yl)methyl)piperazin-1-yl)methyl)phenyl)-5-(5-ethyl-2,4-dihydroxyphenyl)-N-(1,1,1-trifluoropropan-2-yl)-4H-1,2,4-triazole-3-carboxamide] | 100 to 1000 | < 100 | 100 to 1000 | – | –
9 | CCOc1cc(N2CCC(C(=O)NCCOCCOCCNC(=O)O[C@H]3CC[C@H](Nc4cc(-n5nc(C(F)(F)F)c6c5CC(C)(C)CC6=O)ccc4C(N)=O)CC3)CC2)ccc1Nc1ncc2c(n1)N(S(C)(=O)=O)c1ccccc1C(=O)N2C [Compound 116, (1R,4R)-4-((2-carbamoyl-5-(6,6-dimethyl-4-oxo-3-(trifluoromethyl)-4,5,6,7-tetrahydro-1H-indazol-1-yl)phenyl)amino)cyclohexyl (2-(2-(2-(1-(3-ethoxy-4-((5-methyl-11-(methylsulfonyl)-6-oxo-6,11-dihydro-5H-benzo[e]pyrimido[5,4-b][1,4]diazepin-2-yl)amino)phenyl)piperidine-4-carboxamido)ethoxy)ethoxy)ethyl)carbamate] | > 1000 | 100 to 1000 | > 1000 | – | –
10 | CCOc1cc(N2CCC(C(=O)N3CCC(CN4CCN(C(=O)O[C@H]5CC[C@H](Nc6cc(-n7nc(C(F)(F)F)c8c7CC(C)(C)CC8=O)ccc6C(N)=O)CC5)CC4)CC3)CC2)ccc1Nc1ncc2c(n1)N(S(C)(=O)=O)c1ccccc1C(=O)N2C [Compound 117, (1R,4R)-4-((2-carbamoyl-5-(6,6-dimethyl-4-oxo-3-(trifluoromethyl)-4,5,6,7-tetrahydro-1H-indazol-1-yl)phenyl)amino)cyclohexyl 4-((1-(1-(3-ethoxy-4-((5-methyl-11-(methylsulfonyl)-6-oxo-6,11-dihydro-5H-benzo[e]pyrimido[5,4-b][1,4]diazepin-2-yl)amino)phenyl)piperidine-4-carbonyl)piperidin-4-yl)methyl)piperazine-1-carboxylate] | > 1000 | 100 to 1000 | > 1000 | – | –
11 | CCOc1cc(N2CCC(C(=O)N3CCC(CN4CCN(C(=O)CNC(=O)O[C@H]5CC[C@H](Nc6cc(-n7nc(C(F)(F)F)c8c7CC(C)(C)CC8=O)ccc6C(N)=O)CC5)CC4)CC3)CC2)ccc1Nc1ncc2c(n1)N(S(C)(=O)=O)c1ccccc1C(=O)N2C [Compound 119, (1R,4R)-4-((2-carbamoyl-5-(6,6-dimethyl-4-oxo-3-(trifluoromethyl)-4,5,6,7-tetrahydro-1H-indazol-1-yl)phenyl)amino)cyclohexyl (2-(4-((1-(1-(3-ethoxy-4-((5-methyl-11-(methylsulfonyl)-6-oxo-6,11-dihydro-5H-benzo[e]pyrimido[5,4-b][1,4]diazepin-2-yl)amino)phenyl)piperidine-4-carbonyl)piperidin-4-yl)methyl)piperazin-1-yl)-2-oxoethyl)carbamate] | > 1000 | < 100 | > 1000 | – | –
12 | (1R,4R)-4-((2-carbamoyl-5-(6,6-dimethyl-4-oxo-3-(trifluoromethyl)-4,5,6,7-tetrahydro-1H-indazol-1-yl)phenyl)amino)cyclohexyl 4-(1-(1-(3-ethoxy-4-((5-methyl-11-(methylsulfonyl)-6-oxo-6,11-dihydro-5H-benzo[e]pyrimido[5,4-b][1,4]diazepin-2-yl)amino)phenyl)piperidine-4-carbonyl)piperidin-4-yl)piperazine-1-carboxylate [Compound 118] | > 1000 | – | – | 100 to 1000 | > 1000
